The structures appear in SMILES notation. Like-named read-outs stand apart in the source and are kept apart here.

The record followed here is patent US11192849B2, “Compounds, compositions, and methods for modulating ferroptosis and treating excitotoxic disorders” (THE TRUSTEES OF COLUMBIA UNIVERSITY IN THE CITY OF NEW YORK, priority 2013, dated 2021).

The test relates to HT-1080 cells. The test can be described thus: Inhibition of erastin (10 μM)-induced death in HT-1080 cells (Alamar Blue). It is filed as cell-based, human. Particulars: for prevention of erastin-induced death: erastin-treated HT-1080 cells. As to the method:
Cell viability was typically assessed in 384-well format by Alamar Blue (Invitrogen) fluorescence (ex/em 530/590) measured on a Victor3 platereader (Perkin Elmer, Waltham, Mass.). In some experiments, Trypan Blue dye exclusion counting was performed using an automated cell counter (ViCell, Beckman-Coulter Inc., Brea, Calif.). Cell viability in test conditions is reported as a percentage relative to the negative control treatment.
The ability of various compounds disclosed herein to inhibit death in erastin (10 μM)-treated HT-1080 cells were tested. Cell viability was assessed by Alamar Blue. EC50 values (nM) were computed from dose response curves.
HT-1080 cells are cultured in DMEM containing 10% fetal bovine serum, 1% supplemented non-essential amino acids and 1% pen/strep mixture (Gibco) and maintained in a humidified environment at 37° C. with 5% CO2 in a tissue culture incubator. 1,000 HT-1080 cells are seeded per well in duplicate 384-well plates (Corning) using a BioMek FX liquid handling robot (Beckman Coulter). The next day, the medium is replaced with 36 μL of medium containing 10 μM erastin with 4 μL of medium containing a dilution series (previously prepared) of DMSO, Fer-1 (positive control) or Fer-1 analogs. 24 hours later, 10 μL Alamar Blue (Invitrogen) cell viability solution is added to the growth media to a final concentration of 10%. Cells are incubated a further 6 hours and then the Alamar Blue fluorescence intensity recorded using a Victor 3 platereader (PerkinElmer)(ex/em 530/590). All experiments are performed at least twice and the background (no cells)-subtracted Alamar Blue values for each combination are averaged between replicates.

[1] abbreviates: Homo sapiens, HT-1080, SI Table 7, read-out: EC50.
Setting [2] is: Homo sapiens, HT-1080, SI Table 5, read-out: EC50.
Setting [3] is: Homo sapiens, HT-1080, SI Table 4, various R3 substitutions, read-out: EC50.
Where [4] appears, read: Homo sapiens, HT-1080, SI Table 6, read-out: EC50.
Setting [5] is: Homo sapiens, HT-1080, Table 1 (Example 10), erastin (10 μM)-treated HT-1080 cells, read-out: EC50.
The mark [6] stands for this setting: Homo sapiens, HT-1080, SI Table 2, analogs with various hydrophobic moieties, read-out: EC50.
Setting [7] is: Homo sapiens, HT-1080, SI Table 3, cyclic amines bearing heteroatoms, read-out: EC50.

Regarding `COC(=O)CCC(=O)C(=O)OC` [DMK, dimethyl alpha ketoglutarate, reference compound], the “prevention of erastin-induced death” value is “the lethality of erastin was restored”.
For the compound `CCOC(=O)c1ccc(NC2CCCCC2)c(NCc2ccncc2)c1` [SRS12-45, ethyl 4-(cyclohexylamino)-3-((pyridin-4-ylmethyl)amino)-benzoate], under “HT-1080, erastin (10 μM)”, the “potency compared with Fer-1” value is “more potent than Fer-1”. Moreover, the EC50 under setting [1] was determined as 25 nM.
For the compound `CCOC(=O)c1ccc(NC2CCCCCCC2)c(NC(=O)OC(C)(C)C)c1` [SRS8-91, ethyl 3-(tert-butoxycarbonylamino)-4-(cyclooctylamino)-benzoate], the EC50 under setting [2] is over 10000 nM.
Take `Nc1ccccc1NC1CCCCC1` [SRS8-75, N1-cyclohexylbenzene-1,2-diamine]: the EC50 under setting [3] is 330 nM.
For `CCOC(=O)c1ccc(NC2CCCCC2)c(NCc2cccnc2)c1` [SRS13-12, ethyl 4-(cyclohexylamino)-3-(pyridin-3-ylmethylamino)-benzoate], the concentration for a half-maximal effect (EC50) under setting [1] was 48 nM.
For `CCOC(=O)c1ccc(NC2CCCCC2)c(NC(=O)OC)c1` [SRS11-97, ethyl 4-(cyclohexylamino)-3-(methoxycarbonylamino)benzoate], the EC50 under setting [2] was over 10000 nM.
As to `CCOC(=O)c1ccc(NC2CCCCC2)c(NCc2ccc([N+](=O)[O-])cc2)c1` [SRS12-36, ethyl 4-(cyclohexylamino)-3-((4-nitrobenzyl)amino)benzoate], the EC50 under setting [4] worked out at 36 nM.
Take `CCOC(=O)c1ccc(NC23CC4CC(CC(C4)C2)C3)c([N+](=O)[O-])c1` [SRS15-15]: the “EC50 (nM)” value (Table 1 (Example 10), erastin (10 μM)-treated HT-1080 cells) is “Not active”.
Regarding `CCOC(=O)c1ccc(NC2CCCCC2)c(NCc2ccc(F)c(C#N)c2)c1` [SRS12-54, ethyl 3-(3-cyano-4-fluorobenzylamino)-4-(cyclohexylamino)-benzoate], the concentration for a half-maximal effect (EC50) under setting [1] amounted to 159 nM.
For the compound `CCOC(=O)c1ccc(NC23CC4CC(CC(C4)C2)C3)c(NCc2ccncc2)c1` [SRS15-24, ethyl 4-(1-adamantylamino)-3-((pyridin-4-ylmethyl)amino)-benzoate], the concentration for a half-maximal effect (EC50) under setting [5] was 8.6 nM.
`CCOC(=O)c1ccc(NC2CCCCC2)c(NCc2ccc(C#N)cc2)c1` [SRS12-50, ethyl 3-(4-cyanobenzylamino)-4-(cyclohexylamino)benzoate]: the EC50 under setting [4] was determined as 100 nM.
As to `CCOC(=O)c1ccc(Cl)c(N)c1` [SRS8-62], the half-maximal effective concentration (EC50) (SI Table 8, read-out: EC50) was over 10000 nM.
On to `CCOC(=O)c1ccc(Nc2ccccc2)c(N)c1` [SRS8-42, ethyl 3-amino-4-(phenylamino)benzoate], for which, under setting [6], the EC50 turned out to be 200 nM.
With `CCOC(=O)c1ccc(NC2CCCCC2)c(NCc2cc(OC)cc(OC)c2)c1` [SRS12-53, ethyl 4-(cyclohexylamino)-3-(3,5-dimethoxybenzylamino)-benzoate], the EC50 under setting [1] is 41 nM.
As to `CCOC(=O)c1ccc(NC2C3CC4CC(C3)CC2C4)c(N)c1` (stereo not drawn) [SRS15-17, ethyl 3-amino-4-(2-adamantylamino)benzoate], the half-maximal effective concentration (EC50) under setting [5] amounted to 171 nM.
As for `CCOC(=O)c1ccc(NC2CCCCC2)c(NCc2cccc(Cl)c2)c1` [SRS12-58, ethyl 3-(3-chlorobenzylamino)-4-(cyclohexylamino)benzoate], the half-maximal effective concentration (EC50) under setting [4] worked out at 41 nM.
`CCOC(=O)c1ccc(NC2CCC(C)CC2)c(N)c1` (stereo not drawn) [SRS8-48, ethyl 3-amino-4-(4-methylcyclohexylamino)benzoate]: the EC50 under setting [6] came out at 90 nM.
Turning to `CCOC(=O)c1ccc(NC2CCCCC2)c(NCc2ccc(C)cc2)c1` [SRS12-34, ethyl 4-(cyclohexylamino)-3-((4-methylbenzyl)amino)benzoate], the EC50 under setting [4] stood at 40 nM.
On to `CCOC(=O)c1ccc(NC2C3CC4CC(C3)CC2C4)c(NCc2ccncc2)c1` (stereo not drawn) [SRS15-21, ethyl 4-(2-adamantylamino)-3-((pyridin-4-ylmethyl)amino)-benzoate], for which the 50% effective concentration (EC50) under setting [5] stood at 23 nM.
On to `CCOC(=O)c1ccc(NC2CCCCC2)c(NCc2ccc(OC)cc2)c1` [SRS12-43, ethyl 4-(cyclohexylamino)-3-((4-methoxybenzyl)amino)-benzoate], for which, under setting [4], the EC50 came to 69 nM.
On to `CCOC(=O)c1ccc(NC2CCC(NC(=O)OC(C)(C)C)CC2)c(N)c1` (stereo not drawn) [SRS8-46, ethyl 3-amino-4-(4-(tert-butoxycarbonylamino)cyclohexyl-amino)benzoate], for which the EC50 under setting [7] came to 515 nM.
As to `CCOC(=O)c1ccc(NC2CCCCC2)c(NCc2cc(F)cc(F)c2)c1` [SRS12-59, ethyl 4-(cyclohexylamino)-3-(3,5-difluorobenzylamino)-benzoate], the EC50 under setting [1] was 96 nM.
Take `NCCOCCOC(=O)c1ccc(NC2CCCCC2)c(N)c1` [SRS8-43, 2-(2-aminoethoxy)ethyl 3-amino-4-(cyclohexylamino)benzoate]: the EC50 (Homo sapiens, HT-1080, SI Table 4, various R3 substitutions) stood at 420 nM.
With `CCOC(=O)c1ccc(NC2CCN(C(=O)OCC)CC2)c(N)c1` [SRS8-54, ethyl 4-(2-amino-4-(ethoxycarbonyl)phenylamino)piperidine-1-carboxylate], under setting [7], the concentration giving a half-maximal response (EC50) worked out at 2500 nM.
With `Cc1ccc(N(CC(=O)O)CC(=O)O)c(OCCOc2cc3cc(-c4ncc(C(=O)O)o4)oc3cc2N(CC(=O)O)CC(=O)O)c1` [Fura-2, reference compound], the “prevention of erastin-induced death” value is given as “had no effect on erastin-induced death”.
The same measure, in the same setting: the entry for `O=C(O)C(Cl)Cl` [DCA, dichloroacetic acid, reference compound] is “had no effect on erastin-induced ferroptosis”.
Turning to `CC(C)(C)OC(=O)NCCOCCOC(=O)c1ccc(NC2CCCCC2)c(N)c1` [SRS8-37, 2-(2-(tert-butoxycarbonylamino)ethoxy)ethyl 3-amino-4-(cyclohexylamino)benzoate], the EC50 under setting [3] came to 160 nM.
On the same count and under the same terms, the figure for `CC(C)(C)OC(=O)c1ccc(NC2CCCCCCC2)c(N)c1` [SRS8-87, tert-butyl 3-amino-4-(cyclooctylamino)benzoate] is 90 nM.
In the case of `O=C(O)CN(CCOCCOCCN(CC(=O)O)CC(=O)O)CC(=O)O` [EGTA, reference compound], the “prevention of erastin-induced death” value was “had no effect on erastin-induced death”.
For `CCOC(=O)c1ccc(CNc2cc(C(=O)OCC)ccc2NC2CCCCC2)cc1` [SRS12-84, ethyl 4-(cyclohexylamino)-3-(4-(ethoxycarbonyl)benzylamino)-benzoate], the EC50 under setting [1] came to 53 nM.
Turning to `Nc1cc(C(=O)OCCN2CCOCC2)ccc1NC1CCCCC1` [SRS12-47, 2-morpholinoethyl 3-amino-4-(cyclohexylamino)benzoate], under setting [3], the EC50 came out at 660 nM.
On to `CCOC(=O)c1ccc(NC2C3CC4CC(C3)CC2C4)c(N(Cc2ccccc2)Cc2ccccc2)c1` (stereo not drawn) [SRS15-20_di, ethyl 3-(dibenzylamino)-4-(2-adamantylamino)benzoate], for which the EC50 under setting [5] stood at 914 nM.
On to `CCOC(=O)c1ccc(NC2CCCCC2)c(NCc2ccc(F)cc2)c1` [SRS12-33, ethyl 4-(cyclohexylamino)-3-((4-fluorobenzyl)amino)benzoate], for which the EC50 under setting [4] amounted to 50 nM.
Regarding `CCOC(=O)c1ccc(NC2CCC(C(C)(C)C)CC2)c(NCc2ccccc2)c1` (single isomer, unassigned) [SRS13-29, ethyl 3-(benzylamino)-4-(4-tert-butylcyclohexylamino)benzoate], the EC50 under setting [1] amounted to 83 nM.
For `CCOC(=O)c1ccc(NC2CCC(C(C)(C)C)CC2)c(N)c1` (single isomer, unassigned) [SRS13-10_F2, Ethyl 3-amino-4-(4-tert-butylcyclohexyl-amino)benzoate], under “SI Table 2, analogs with various hydrophobic moieties, read-out: EC50”, the EC50 was 13 nM.

Usually EC50 stands for the concentration that produces a half-maximal response.
